Values joined by “and” are separate entries in the source; they are usually repeats but may differ in a detail not shown here. Equal values may be shown once. Read-outs that look alike come from different tables or passages of the source.
Legend:
[1] = system: souris; conditions: for Animaux tombés (%): controls 20,0
Experimental: Le test dit du "rota-rod" permet de juger le tonus musculaire et la coordination motrice de souris placées sur une tige tournant à vitesse constante.
(§1) Ces études ont été réalisées chez des souris mâles, de souche NMRI-Han, réparties au hasard en lots de 15 souris (séries traitées) et 20 souris (série contrôle).
La DA 50 s'exprime par la dose qui provoque en moins de 3 minutes la chute de 50 p. 100 des souris placées sur une tige en bois tournant à une vitesse de 16 tours/min (diamètre 1,7 cm). Ce test qui permet de juger de la coordination motrice des souris est adapté de la technique décrite par N.W. DUNHAN and T.S. MIYA (J. Am. Pharm. Assoc. 1957, 46 : 208)
(§2) Les doses ont été calculées selon une progression géométrique de base 700 (correspondant au 1/10 de la DL 50) et de raison 2, soit respectivement 175, 350, 700 et 1400 mg.kg⁻¹.
(§3) Les traitements sont réalisés 60 minutes avant le test.
(§4) Il est identique à celui décrit dans l'exemple précédent.
(§5) Les doses ont été calculées selon une progression géométrique de base 700 (correspondant au 1/10 de la DL 50) et de raison 2, soit respectivement 10,95; 21,9; 43,8; 87,5; 175; 350; 700 mg/kg. […] Les derniers traitements ont été réalisés 60 minutes avant le test.

[2] = system: singes cynomolggus (Macaca fascicularis); conditions: monkey
Source text: L'étude a été réalisée chez sept singes cynomolggus (Macaca fascicularis), de sexe mâle et femelle, pesant entre 2 et 5 kg.
Un mois avant le début de l'étude, sous anesthésie générale (kétamine + xylazine) huit électrodes (boules d'argent) ont été implantées dans la table osseuse, au niveau des aires frontale, centrale, pariétale et occipitale droites et gauche. L'électrocorticogramme a été enregistré sur un électroencéphalographe REEGA mini-huit (Alvar Electronic) en dérivations monopolaires par rapport à une référence commune.
Les enregistrements ont été réalisés sur des animaux habitués au siège à contention, en position assise, dans une pièce calme mais non insonorisée, en ambiance lumineuse tamisée.
Les huit dérivations EEG ont été analysées simultanément par un Neuromapper 1620 (Neuroscience) qui extrait du signal les transformées de Fourier ("Fast Fourier Transform" : FFT). En fait, 90 échantillons de 2 secondes, soit 3 minutes de tracé exempt d'artefact, ont été analysés. Les données recueillies correspondent à l'amplitude (»V) de chacune des 5 bandes de fréquence EEG classiques selon les bornes suivantes : delta de 0 à 4 Hz ; thêta de 7 à 8 Hz ; alpha de 8 à 13 Hz, bêta₁ de 13 à 20 Hz ; bêta₂ de 20 à 30 Hz.
Pour chacune de ces bandes ont ensuite été calculées : • Les puissances absolues en »V² • les puissances relatives (%), c'est-à-dire la puissance de chacune des bandes de fréquence rapportée à la puissance totale du spectre (power) • la "SEF 95 % (Spectral Edge Frequency 95 %) qui est la fréquence en deçà de laquelle se situent 95 % de la puissance totale du spectre, • le rapport entre fréquences rapides et fréquences lentes : alpha+ bêta/delta + thêta ( α+β/δ+ϑ [formula] )
La dernière ingestion a précédé de 1 heure la seconde administration de diazépam.
Le diazépam (ampoules injectables - Valium® 10 - Roche) a été administré par voie orale, en solution aqueuse, sous un volume de 10 ml/singe, à des doses comprises entre 0,5 mg.kg⁻¹ et 4 mg.kg⁻¹ (doses différentes du fait d'une sensibilité individuelle propre à chaque sujet).
100 (le seuil de probabilité statistique choisi peut paraître élevé ; il est en rapport avec le faible nombre de sujets : n=7). L'ensemble de l'analyse statistique a été obtenu grâce au programme statistique SPSS/PC⁺ (SPSS Inc., Chicago)

[3] = system: souris; conditions: mouse; for Nombre de passages "punis" (moyenne): 60 min before test, controls 5,8
Source text: Le test est pratiqué chez des souris NMRI-HAN soumises à une diète hydrique préalable de 18 heures et réparties en séries de 15.
L'appareillage utilisé consiste en une boite en plexiglas dont le sol est constitué de 4 plaques métalliques séparées les unes des autres. Un circuit d'alimentation permet d'établir une différence de potentiel entre deux plaques adjacentes grâce à un contacteur. Le test est pratiqué en plaçant doucement une souris sur une des plaques du fond de l'appareil ; les plaques sont électrifiées chaque fois que la souris passe de l'une à l'autre, de telle sorte qu'elle reçoit alors un choc électrique au niveau des pattes. Les paramètres du choc sont les suivants : durée de l'impulsion électrique égale à 0,5 seconde ; intensité égale à 0,6 milliampères. Ce choc induit chez les animaux une réaction motrice évidente de fuite, la souris traversant souvent 2 à 3 plaques successivement. Les conditions expérimentales adoptées ont été les suivantes : exploration libre pendant 15 secondes, traversée punie pendant la minute suivante, les résultats étant exprimés en nombre de passages "punis" pendant cette minute. Soixante souris ont été réparties de la façon suivante :
Les administrations ont été réalisées par voie intra-gastrique, à partir de solutions aqueuses, sous un volume constant de 20 ml.kg⁻¹, 60 minutes avant le début du test. Les animaux contrôles ont reçu un même volume d'eau distillée.
Les administrations ont été réalisées par voie intra-gastrique, à partir de solutions aqueuses, sous un volume constant de 20 ml.kg⁻¹ par produit 60 minutes avant le début du test. Les animaux contrôles ont reçu un même volume d'eau distillée.
Dans un premier temps a été calculée la DA 50 (dose anxiolytique 50) du Diazépam (Valium® 10 mg - Roche, ampoule 2ml) seul, administré à des doses suivant une progression géométrique de base 0,25 et de raison 2, soit respectivement 0,25, 0,5 l et 2 mg.kg⁻¹.
La DA 50 est déterminée à partir du pourcentage d'animaux tranquillisés. Est considéré comme tranquillisé tout animal dont le nombre de passages punis est égal ou supérieur à 9, c'est-à-dire à une valeur représentant une augmentation d'au moins 50 % par rapport au score moyen d'animaux non traités.
Toutes les administrations ont été réalisées par voie intra-gastrique à partir de solutions aqueuses, sous un volume constant de 20 ml.kg⁻¹ (eau distillée pour le groupe contrôle). […] La veille du test, les souris sont soumises à une diète hydrique de 18 heures. La dernière ingestion est pratiquée une heure avant l'étude, concomitamment avec le diazépam (Valium® 10 mg - Roche, ampoules de 2 ml).

[4] = system: souris; conditions: mouse; for nombre de redressements, Total (moyenne): 3 min in cylinder
Source text: Les scores d'activité sont fonction de la surface à explorer. Ils sont également fonction de deux motivations contradictoires : la curiosité et la crainte. Il faut enfin savoir que lorsque la surface offerte permet une activité "horizontale" (marche) la curiosité parait l'emporter; par contre lorsque la surface est réduite et conduit à une activité "verticale" (redressements le long des parois d'un cylindre) il semble que la crainte anxieuse soit davantage présente et conduise à une activité soit diminuée, soit cyclique, et apparemment sans focalisation.
as §1
Au sortir de l'actimètre, les souris sont placées dans un cylindre en verre (hauteur 30 cm, diamètre 9 cm) L'exploration anxiogène a été mesurée par le nombre de redressements au cours de la première minute passée dans le cylindre, l'activité basale anxiogène étant considérée dans la même enceinte, entre 1 et 3 minutes.
as §2, §3, §4, §5

[5] = system: souris; conditions: mouse; for animaux ne présentant pas de comportement anxiogène (miction, défécation): controls 20 %; for souris présentant une défécation et une miction émotionnelles: controls 85 p. 100
Experimental: as §1
Enfin, l'effet à l'égard des manifestations dites émotionnelles est mesuré sur la miction et la défécation au cours des 3 minutes passées dans le cylindre et permet le calcul d'une DA 50 dite "anti-émotionnelle".
as §2, §3, §4, §5

[6] = repeated daily dosing (13 days), 10.95 mg/kg P.O., last dose 60 min before test
[7] = repeated daily dosing (13 days), 21.9 mg/kg P.O., last dose 60 min before test
[8] = repeated daily dosing (13 days), 43.8 mg/kg P.O., last dose 60 min before test
[9] = repeated daily dosing (13 days), 87.5 mg/kg P.O., last dose 60 min before test
[10] = repeated daily dosing (13 days), 175 mg/kg P.O., last dose 60 min before test
[11] = repeated daily dosing (13 days), 350 mg/kg P.O., last dose 60 min before test
[12] = repeated daily dosing (13 days), 700 mg/kg P.O., last dose 60 min before test
[13] = single dose 175 mg.kg⁻¹ P.O., 60 min before test
[14] = single dose 350 mg.kg⁻¹ P.O., 60 min before test
[15] = single dose 700 mg.kg⁻¹ P.O., 60 min before test
[16] = single dose 1400 mg.kg⁻¹ P.O., 60 min before test

α-β-aspartate de magnésium
Animaux tombés (%) ([1]; mouse, 10,95 mg.kg⁻¹ P.O x13): 26,6%
Animaux tombés (%) ([1]; mouse, 21,9 mg.kg⁻¹ P.O x13): 33,3%
Animaux tombés (%) ([1]; mouse, 43,8 mg.kg⁻¹ P.O x13): 46,6%
Animaux tombés (%) ([1]; mouse, 67,5 mg.kg⁻¹ P.O x13): 33,3%
Animaux tombés (%) ([1]; mouse, 175,0 mg.kg⁻¹ P.O x13): 46,6%
Animaux tombés (%) ([1]; mouse, 350,0 mg.kg⁻¹ P.O x13): 33,3%
Animaux tombés (%) ([1]; mouse, 700,0 mg.kg⁻¹ P.O x13): 33,3%
souris qui chutent de la tige tournante au cours des 3 minutes ([1]; mouse, single dose 175 mg.kg⁻¹ P.O., controls 25 %): 13%
DA 50 (réduction du tonus musculaire, rota-rod) ([1]; mouse, single dose P.O., Litchfield-Wilcoxon, confidence limits (5 p. 100) 343 - 1091 mg.kg⁻¹): 612 mg/kg
"SEF 95%" augmentée ([2]; 50 mg.kg⁻¹ orally twice daily for two weeks, before diazepam): 0,5 Hz
puissance relative de la bande β accrue ([2]; 50 mg.kg⁻¹ orally twice daily for two weeks, resting EEG, individual values of 4 of 7 subjects): 4,4% and 3,6% and 6,2% and 13%
ondes delta accrues ([2]; 50 mg.kg⁻¹ orally twice daily for two weeks, individual values among the 3 other monkeys): 5% and 8%
proportion relative de la bande β₂ ([2]; after two weeks of α-β-aspartate de magnésium, before diazepam, reference before any drug 20 %): 23%
Nombre de passages "punis" (moyenne) ([3]; single dose 300 mg.kg⁻¹ P.O.): n'accroît pas significativement
Nombre de passages "punis" (moyenne) ([3]; single dose 300 mg.kg⁻¹ P.O., listed as Mag): 6,4
Nombre de passages "punis" (moyenne) ([3]; single dose 600 mg.kg⁻¹ P.O.): accru significativement
Nombre de passages "punis" (moyenne) ([3]; single dose 600 mg.kg⁻¹ P.O., listed as Mag): 8,3
Nombre de passages "punis" (moyenne) ([3]; single dose 1200 mg.kg⁻¹ P.O.): accru significativement
Nombre de passages "punis" (moyenne) ([3]; single dose 1200 mg.kg⁻¹ P.O., listed as Mag): 7,5
dose optimum (propriétés tranquillisantes mineures) ([3]; single dose P.O.): 600 mg/kg
nombre de redressements, 1ère minute (moyenne) [4, 6]: 16
nombre de redressements, 2ème minute (moyenne) [4, 6]: 11
nombre de redressements, 3ème minute (moyenne) [4, 6]: 8
nombre de redressements, Total (moyenne) [4, 6]: 35
nombre de redressements, 1ère minute (moyenne) [4, 7]: 14
nombre de redressements, 2ème minute (moyenne) [4, 7]: 9
nombre de redressements, 3ème minute (moyenne) [4, 7]: 6
nombre de redressements, Total (moyenne) [4, 7]: 29
nombre de redressements, 1ère minute (moyenne) [4, 8]: 13
nombre de redressements, 2ème minute (moyenne) [4, 8]: 9
nombre de redressements, 3ème minute (moyenne) [4, 8]: 8
nombre de redressements, Total (moyenne) [4, 8]: 30
nombre de redressements, 1ère minute (moyenne) [4, 9]: 13
nombre de redressements, 2ème minute (moyenne) [4, 9]: 9
nombre de redressements, 3ème minute (moyenne) [4, 9]: 8
nombre de redressements, Total (moyenne) [4, 9]: 30
nombre de redressements, 1ère minute (moyenne) [4, 10]: 12
nombre de redressements, 2ème minute (moyenne) [4, 10]: 9
nombre de redressements, 3ème minute (moyenne) [4, 10]: 8
nombre de redressements, Total (moyenne) [4, 10]: 29
nombre de redressements, 1ère minute (moyenne) [4, 11]: 13
nombre de redressements, 2ème minute (moyenne) [4, 11]: 10
nombre de redressements, 3ème minute (moyenne) [4, 11]: 8
nombre de redressements, Total (moyenne) [4, 11]: 31
nombre de redressements, 1ère minute (moyenne) [4, 12]: 14
nombre de redressements, 2ème minute (moyenne) [4, 12]: 10
nombre de redressements, 3ème minute (moyenne) [4, 12]: 9
nombre de redressements, Total (moyenne) [4, 12]: 33
nombre de redressements, 1ère minute (moyenne) [4, 13]: 14
nombre de redressements, 2ème minute (moyenne) [4, 13]: 8
nombre de redressements, 3ème minute (moyenne) [4, 13]: 7
nombre de redressements, Total (moyenne) [4, 13]: 29
nombre de redressements, 1ère minute (moyenne) [4, 14]: 15
nombre de redressements, 2ème minute (moyenne) [4, 14]: 9
nombre de redressements, 3ème minute (moyenne) [4, 14]: 6
nombre de redressements, Total (moyenne) [4, 14]: 30
nombre de redressements, 1ère minute (moyenne) [4, 15]: 15
nombre de redressements, 2ème minute (moyenne) [4, 15]: augmente significativement
nombre de redressements, 3ème minute (moyenne) [4, 15]: 7
nombre de redressements, Total (moyenne) [4, 15]: 32
nombre de redressements, 2ème minute (moyenne) ([4]; single dose 700 mg.kg⁻¹ P.O., 60 min before test, listed as Mag): 10
nombre de redressements, 1ère minute (moyenne) [4, 16]: 15
nombre de redressements, 2ème minute (moyenne) [4, 16]: augmente significativement
nombre de redressements, 3ème minute (moyenne) [4, 16]: 8
nombre de redressements, Total (moyenne) [4, 16]: 34
nombre de redressements, 2ème minute (moyenne) ([4]; single dose 1400 mg.kg⁻¹ P.O., 60 min before test, listed as Mag): 11
DA 50 (enceinte anxiogène, sujets ne présentant pas de comportement anxieux) ([5]; repeated administration over 13 days P.O., limits 11,26 - 68,66 mg/kg): 27,8 mg/kg and 28 mg/kg and 27,81 mg/kg
animaux ne présentant pas de comportement anxiogène (miction, défécation) ([5]; repeated dosing (13 days), 175 mg/kg P.O.): 73,3%
animaux ne présentant pas de comportement anxiogène (miction, défécation) ([5]; repeated dosing (13 days), 350 mg/kg P.O.): 60%
animaux ne présentant pas de comportement anxiogène (miction, défécation) ([5]; repeated dosing (13 days), 700 mg/kg P.O.): 66,7%
animaux ne présentant pas de comportement anxiogène (miction, défécation) ([5]; repeated dosing (13 days), 10,95 mg/kg P.O.): 40%
animaux ne présentant pas de comportement anxiogène (miction, défécation) ([5]; repeated dosing (13 days), 21,9 mg/kg P.O.): 40%
animaux ne présentant pas de comportement anxiogène (miction, défécation) ([5]; repeated dosing (13 days), 43,8 mg/kg P.O.): 60%
animaux ne présentant pas de comportement anxiogène (miction, défécation) ([5]; repeated dosing (13 days), 87,5 mg/kg P.O.): 66,7%
souris présentant une défécation et une miction émotionnelles ([5]; single dose 175 mg.kg⁻¹ P.O.): 40%
souris présentant une défécation et une miction émotionnelles ([5]; single dose 350 mg.kg⁻¹ P.O.): 53%
souris présentant une défécation et une miction émotionnelles ([5]; single dose 700 mg.kg⁻¹ P.O.): 27%
souris présentant une défécation et une miction émotionnelles ([5]; single dose 1400 mg.kg⁻¹ P.O.): 73%
DA 50 "anti-émotionnelle" ([5]; single dose P.O., confidence limits (5 p. 100) 160 - 2082 mg.kg⁻¹): 577 mg/kg
